According to EP3120851A1, “4-AMINO-6-(2,6-DICHLOROPHENYL)-8-METHYL-2-(PHENYLAMINO)-PYRIDO[2,3-D]PYRIMIDIN-7(8H)-ONE FOR TREATMENT OF SOLID CANCERS” (Pangaea Biotech S.L., priority 2015, dated 2017):

Columns and labels:
Test in all cases: radiometric protein kinase assay (33PanQinase Activity Assay)
Assay type in all cases: biochemical
Details in all cases: singlicate, read-out: residual activity
EGF-R L861Q = target: T1, EGF-R L861Q (Homo sapiens, UniProt P00533, L861Q)
T1 construct: GST or His (not specified per kinase); purchased ProQinase (panel service); host or cells: Sf9 insect cells or E. coli
Protocol: (§1) In a first experiment, the kinase inhibition profile of the compound of formula (1) was evaluated at Proqinase (http://www.proqinase.com) by measuring residual activity values at a concentration of 10 µM of the test compound in singlicate in front of the following kinases: ABL2, EPHA3, CSF1-R, DDR2 wt, DDR2 N456 S, EGF-R d746-750, EGF-R d747-752/P753S, EGF-R G719C, EGF-R G719S, EGF-R L858R, EGF-R L861Q, EGF-R wt, EPHA1, EPHA2, EPHB1, ERBB4, LCK, MINK1, RAF1 Y340D/Y341D (untagged), RIPK2, STK17A. In a second experiment, the kinase inhibition profile of the compound of formula (1) was evaluated at Proqinase (http://www.proqinase.com) by measuring residual activity values at a concentration of 0.5 and 10 µM of the test compound in singlicate in front of a panel of 300 kinases using the following protocol:
(§2) The compounds were dissolved to 1 x 10^-03 M stock solutions in 100% DMSO. Subsequently, 100 µl of each stock solution were transferred into wells A3-F12 of a microtiter plate ("master plate"). Wells A1-F2 were filled with 100 µl 100% DMSO as controls. 5 x 10 µl of the master plate were aliquoted into 5 copy plates, which were stored at -20° Celsius until use. For the testing of each group of up to 8 kinases, one copy plate was used.
(§3) In the process, 90 µl H2O were added to each well of a copy plate. To minimize precipitation, the H2O was added to each well only a few minutes before the transfer of the compound solutions into the assay plates. The plate was shaken thoroughly, resulting in a "compound dilution plate" with a compound concentration of 1 x 10^-04 M/10 % DMSO. This plate was used for the transfer of 5 µl compound solution into the assay plates. The final volume of the assay was 50 µl. All compounds were tested at 1 x 10^-05 M in singlicate. The final DMSO concentration in the reaction cocktails was 1 % in all cases. The compound dilution plates were disposed at the end of each working day.
(§4) A radiometric protein kinase assay (^33PanQinase® Activity Assay) was used for measuring the kinase activity of the corresponding protein kinases. All kinase assays were performed in 96-well FlashPlatesTM from Perkin Elmer (Boston, MA, USA) in a 50 µl reaction volume. The reaction cocktail was pipetted in 4 steps in the following order: • 10 µl of non-radioactive ATP solution (in H2O) • 25 µl of assay buffer/ [γ-33P]-ATP mixture • 5 µl of test sample in 10% DMSO • 10 µl of enzyme/substrate mixture
(§5) The protein kinase reaction cocktails were incubated at 30°C for 60 minutes. The reaction was stopped with 50 µl of 2 % (v/v) H3PO4, plates were aspirated and washed two times with 200 µl 0.9 % (w/v) NaCl. All assays were performed with a BeckmanCoulter Biomek 2000/SL robotic system. Incorporation of ^33Pi (counting of "cpm") was determined with a microplate scintillation counter (Microbeta, Wallac).
(§6) All protein kinase assays were performed with a BeckmanCoulter Core robotic system.
(§7) All protein kinases provided by ProQinase were expressed in Sf9 insect cells or in E.coli as recombinant GST-fusion proteins or His-tagged proteins. All kinases were produced from human cDNAs and purified by either GSH-affinity chromatography or immobilized metal. Affinity tags were removed from a number of kinases during purification. The purity of the protein kinases was examined by SDS-PAGE/Coomassie staining, the identity was checked by mass spectroscopy.
(§8) Kinases from external vendors (CAR = Carna Biosciences Inc.; INV = Life Technologies (Invitrogen Corporation); MIL = Merck-Millipore (Millipore Corporation)) were expressed, purified and quality-controlled by virtue of the vendors readings.
(§9) For each kinase, the median value of the cpm of six wells of column 1 of each assay plate was defined as "low control" (n=6). This value reflects unspecific binding of radioactivity to the plate in the absence of a protein kinase but in the presence of the substrate. […]

EPHA1 = target: T2, EPHA1 (Homo sapiens, UniProt P21709)
T2 construct: GST or His (not specified per kinase); purchased ProQinase (panel service); host or cells: Sf9 insect cells or E. coli
Protocol: as §1, §2, §3, §4, §5, §6, §7, §8, §9

[1] = target: T3, RAF1 Y340D/Y341D (untagged) (Homo sapiens, UniProt P04049, Y340D/Y341D)
T3 construct: purchased ProQinase (panel service); host or cells: Sf9 insect cells or E. coli
Protocol: as §1, §2, §3, §4, §5, §6, §7, §8, §9

T3 sequence (P04049 whole entry Y340D/Y341D): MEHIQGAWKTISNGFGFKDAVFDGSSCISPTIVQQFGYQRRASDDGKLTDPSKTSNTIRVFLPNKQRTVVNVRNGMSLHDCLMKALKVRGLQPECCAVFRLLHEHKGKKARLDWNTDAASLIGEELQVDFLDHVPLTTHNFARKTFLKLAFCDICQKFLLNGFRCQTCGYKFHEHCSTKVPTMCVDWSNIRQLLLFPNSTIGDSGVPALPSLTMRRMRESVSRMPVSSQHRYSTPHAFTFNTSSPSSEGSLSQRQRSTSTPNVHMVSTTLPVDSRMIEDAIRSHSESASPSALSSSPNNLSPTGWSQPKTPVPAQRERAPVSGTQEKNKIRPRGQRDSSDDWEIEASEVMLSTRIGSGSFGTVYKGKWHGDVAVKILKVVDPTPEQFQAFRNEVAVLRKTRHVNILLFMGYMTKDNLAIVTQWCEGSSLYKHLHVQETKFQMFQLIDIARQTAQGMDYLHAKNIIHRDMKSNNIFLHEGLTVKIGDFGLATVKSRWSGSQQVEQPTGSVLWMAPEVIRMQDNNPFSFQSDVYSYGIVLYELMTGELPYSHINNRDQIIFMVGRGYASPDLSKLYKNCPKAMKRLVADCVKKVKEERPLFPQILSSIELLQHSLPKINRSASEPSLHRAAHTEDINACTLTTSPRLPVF
T1 sequence (P00533 25-1210 L861Q): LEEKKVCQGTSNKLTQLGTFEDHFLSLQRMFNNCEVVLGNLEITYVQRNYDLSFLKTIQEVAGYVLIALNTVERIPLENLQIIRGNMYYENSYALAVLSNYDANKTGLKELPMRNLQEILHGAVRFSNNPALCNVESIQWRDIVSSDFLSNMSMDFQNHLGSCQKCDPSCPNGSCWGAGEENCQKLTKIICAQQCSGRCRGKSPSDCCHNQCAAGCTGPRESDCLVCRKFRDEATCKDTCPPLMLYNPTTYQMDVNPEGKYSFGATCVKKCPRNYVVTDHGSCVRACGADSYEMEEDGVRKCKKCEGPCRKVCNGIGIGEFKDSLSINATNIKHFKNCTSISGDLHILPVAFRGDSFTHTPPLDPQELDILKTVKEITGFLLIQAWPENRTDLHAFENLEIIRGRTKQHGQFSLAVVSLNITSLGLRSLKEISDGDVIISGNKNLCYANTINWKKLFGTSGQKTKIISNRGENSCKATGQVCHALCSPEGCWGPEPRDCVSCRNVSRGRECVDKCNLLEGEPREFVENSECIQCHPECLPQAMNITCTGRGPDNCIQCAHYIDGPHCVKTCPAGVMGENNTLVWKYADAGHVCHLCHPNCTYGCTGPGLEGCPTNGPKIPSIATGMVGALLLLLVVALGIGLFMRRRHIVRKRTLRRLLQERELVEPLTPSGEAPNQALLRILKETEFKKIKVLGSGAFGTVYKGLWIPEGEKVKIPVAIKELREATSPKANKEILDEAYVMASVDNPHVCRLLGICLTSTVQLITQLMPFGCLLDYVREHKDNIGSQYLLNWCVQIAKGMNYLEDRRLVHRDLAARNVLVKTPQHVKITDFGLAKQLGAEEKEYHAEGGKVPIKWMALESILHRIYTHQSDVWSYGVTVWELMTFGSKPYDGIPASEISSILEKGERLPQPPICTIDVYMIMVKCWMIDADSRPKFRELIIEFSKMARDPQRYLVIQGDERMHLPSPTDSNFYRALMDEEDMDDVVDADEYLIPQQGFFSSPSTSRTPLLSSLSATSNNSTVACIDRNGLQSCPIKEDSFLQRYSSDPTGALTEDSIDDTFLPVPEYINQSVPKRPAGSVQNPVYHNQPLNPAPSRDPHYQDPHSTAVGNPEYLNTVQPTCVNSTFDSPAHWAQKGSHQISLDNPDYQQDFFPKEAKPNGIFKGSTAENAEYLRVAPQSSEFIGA
T2 sequence (P21709 26-976): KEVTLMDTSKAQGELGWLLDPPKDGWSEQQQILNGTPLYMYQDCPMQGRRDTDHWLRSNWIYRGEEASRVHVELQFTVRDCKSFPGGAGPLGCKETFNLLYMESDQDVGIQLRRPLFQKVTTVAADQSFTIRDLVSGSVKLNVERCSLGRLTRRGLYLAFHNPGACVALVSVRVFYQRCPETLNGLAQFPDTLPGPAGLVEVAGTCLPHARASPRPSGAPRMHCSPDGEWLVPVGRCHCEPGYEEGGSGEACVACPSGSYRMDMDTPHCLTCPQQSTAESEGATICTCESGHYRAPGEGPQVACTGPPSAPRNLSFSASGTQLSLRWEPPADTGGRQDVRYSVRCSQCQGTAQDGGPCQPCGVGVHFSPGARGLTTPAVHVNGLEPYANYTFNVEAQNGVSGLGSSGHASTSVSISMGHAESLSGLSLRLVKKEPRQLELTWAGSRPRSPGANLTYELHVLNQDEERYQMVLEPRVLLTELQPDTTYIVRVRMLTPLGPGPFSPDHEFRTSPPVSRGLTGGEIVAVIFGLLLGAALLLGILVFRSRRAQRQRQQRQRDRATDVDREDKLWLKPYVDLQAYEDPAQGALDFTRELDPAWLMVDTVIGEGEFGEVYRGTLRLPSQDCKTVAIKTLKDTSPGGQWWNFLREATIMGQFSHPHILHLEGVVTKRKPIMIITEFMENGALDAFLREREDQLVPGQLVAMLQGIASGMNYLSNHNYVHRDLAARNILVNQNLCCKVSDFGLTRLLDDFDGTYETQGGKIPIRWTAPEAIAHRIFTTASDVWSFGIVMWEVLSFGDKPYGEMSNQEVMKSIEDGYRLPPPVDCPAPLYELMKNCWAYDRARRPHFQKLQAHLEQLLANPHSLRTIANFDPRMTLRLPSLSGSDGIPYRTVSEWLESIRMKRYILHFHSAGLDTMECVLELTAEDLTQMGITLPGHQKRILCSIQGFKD

With Cn1c(=O)c(-c2c(Cl)cccc2Cl)cc2c(N)nc(Nc3ccccc3)nc21 [Compound (1), 4-amino-6-(2,6-dichlorophenyl)-8-methyl-2-(phenylamino)-pyrido[2,3-d]pyrimidin-7(8H)-one] as the compound, how does the remaining activity at 0.5 µM (EGF-R L861Q; 0.5 µM test compound) read?
The remaining activity at 0.5 µM was 36%.

What about the remaining activity at 10 µM (EGF-R L861Q; 10 µM test compound) of the same compound?
The remaining activity at 10 µM was 8%.

What about the remaining activity at 0.5 µM (EPHA1; 0.5 µM test compound) of the same compound?
The remaining activity at 0.5 µM was 54%.

And the remaining activity at 10 µM (EPHA1; 10 µM test compound)?
The remaining activity at 10 µM was 13%.

What about the remaining activity at 0.5 µM ([1]; 0.5 µM test compound) of the same compound?
Its remaining activity at 0.5 µM is 57%.

And the remaining activity at 10 µM ([1]; 10 µM test compound)?
Its remaining activity at 10 µM is 25%.
